In brackets after ≈: the same amount, converted by molar mass.
Columns and labels:
[1] = system: murine tumor cell lines KB, L1210 and P388; assay: In vitro activity against one or all of the murine tumor cell lines KB, L1210 and P388; type: cell-based; conditions: for in vitro antitumor activity: one or all of KB, L1210 and P388
From the text: (§1) A suitable solvent system was developed for the isolation of pure compounds of the invention by using the following systems in TLC. (A) chloroform (100%), (B) chloroform-ethyl acetate (80:20), (C) chloroform-acetone (80:20), (D) chloroform-methanol (80:20), (E) chloroform-acetic acid (95:5), (F) chloroform-acetone-acetic acid (90:8:2), (G) chloroform-hexane-acetic acid (50:50:5), (H) ether-petroleum ether (1:1), (I) chloroform-benzene methanol (6:3:1), (J) chloroform-benzene-methanol (7:3:2), (K) benzene-ethylacetate-methanol-formic acid-water (5:5:1.5:1:0.3), (L) chloroform-hexane-methanol (5:5:1) and (M) chloroform-heptane-methanol-acetic acid (40:40:18:2). In some of the solvents the order of elution changed. […] The crude compound was therefore chromatographed on a TLC grade silica gel column eluting with chloroform (100%), chlorform-acetic acid (99:1), chloroform-acetic acid (98:2), and chloroform-acetic acid (95:5). Based on the TLC, various fractions were combined to produce a red and purple eluate. These were separately concentrated and precipitated with chloroform-petroleum ether to yield red and purple powder. The red powder has been designated as maggiemycin (NSC-D344012) and the purple powder as anhydromaggiemycin. Both these compounds were active against Bacillus subtilis and Straphylococcus aureus. The in vitro antitumor activity of maggiemycin and anhydromaggiemycin against KB, P388 and L1210 murine cell lines is shown in Table 1.
The biological activity of these newly isolated anthracyclinones was compared with some of the known anthracyclinones. Each compounds was tested for in vitro activity against one or all of the murine tumor cell lines KB, L1210 and P388.

Straphylococcus aureus = assay: Antibacterial activity against Straphylococcus aureus; type: cell-based
L1210 = assay: In vitro cytotoxicity (growth inhibition) against L1210; type: cell-based, murine; conditions: Mus musculus, dose level at which 50% inhibition of growth in vitro is noted vs. untreated controls, read-out: ED50 L1210
From the text: as §1, with “The in vitro antitumor activity of maggiemycin and anhydromaggiemycin against KB, P388 and L1210 murine cell lines is shown in Table 1.” left out

P388 = assay: In vitro cytotoxicity (growth inhibition) against P388; type: cell-based, murine; conditions: Mus musculus, dose level at which 50% inhibition of growth in vitro is noted vs. untreated controls, read-out: ED50 P388
From the text: as §1, with “The in vitro antitumor activity of maggiemycin and anhydromaggiemycin against KB, P388 and L1210 murine cell lines is shown in Table 1.” left out

KB = assay: In vitro cytotoxicity (growth inhibition) against KB; type: cell-based, murine; conditions: Homo sapiens, dose level at which 50% inhibition of growth in vitro is noted vs. untreated controls, read-out: ED50 KB
From the text: as §1, with “The in vitro antitumor activity of maggiemycin and anhydromaggiemycin against KB, P388 and L1210 murine cell lines is shown in Table 1.” left out

Bacillus subtilis = assay: Antibacterial activity against Bacillus subtilis; type: cell-based

SMILES: COc1cccc2c1C(=O)c1c(O)c3c(c(O)c1C2=O)C[C@@](O)(C(C)=O)CC3=O [7-oxidodaunorubicinone]
- in vitro antitumor activity [1]: active

SMILES: CCc1cc(O)c2c(O)c3c(c(O)c2c1C(=O)OC)C(=O)c1cccc(O)c1C3=O [Anhydromaggiemycin]
- activity against Straphylococcus aureus (Straphylococcus aureus): active
- IC50 (L1210): 0.26 µg/mL (≈ 0.637 µM)
- IC50 (P388): 0.62 µg/mL (≈ 1.52 µM)
- IC50 (KB): 0.51 µg/mL (≈ 1.25 µM)
- in vitro antitumor activity [1]: active
- in vitro antitumor activity, comparison of anhydromaggiemycin with maggiemycin ([1]; relative to maggiemycin): more active than maggiemycin
- activity against Bacillus subtilis (Bacillus subtilis): active

SMILES: CC[C@@]1(O)CC(=O)c2c(O)c3c(c(O)c2[C@H]1C(=O)OC)C(=O)c1cccc(O)c1C3=O [Maggiemycin]
- activity against Straphylococcus aureus (Straphylococcus aureus): active
- IC50 (L1210): 5.2 µg/mL (≈ 12.2 µM)
- IC50 (P388): 4.4 µg/mL (≈ 10.3 µM)
- IC50 (KB): 2.7 µg/mL (≈ 6.33 µM)
- in vitro antitumor activity [1]: active
- activity against Bacillus subtilis (Bacillus subtilis): active

SMILES: COc1cccc2c1C(=O)c1c(c(O)c3cc(C(C)=O)cc(O)c3c1O)C2=O [anhydro-7-oxidodaunorubicinone, Anhydro-7-oxidodaunorubicinone]
- in vitro antitumor activity [1]: inactive

SMILES: COc1cccc2c1C(=O)c1c(O)c3c(c(O)c1C2=O)C[C@@](O)(C(C)=O)C[C@@H]3O [daunorubicinone, Daunorubicinone, reference compound]
- in vitro antitumor activity [1]: inactive

SMILES: CC[C@@]1(O)C[C@H](O)c2c(O)c3c(c(O)c2[C@H]1C(=O)OC)C(=O)c1cccc(O)c1C3=O [ε-rhodomycinone, ε-Rhodomycinone, reference compound]
- in vitro antitumor activity [1]: inactive

Source: patent US4501699A, “Maggiemycin, anhydromaggiemycin and processes for making” (Litton Bionetics, Inc., priority 1982, dated 1985)
